Data: patent US11826317B2, “Combination therapy with notch and PD-1 or PD-L1 inhibitors” (Eli Lilly and Company, priority 2016, dated 2023)

How the values were obtained:
[1] = tested on: CT-26 tumors; test: Gene expression analysis (Taqman) of excised CT-26 tumors; type: in vivo, mice; conditions: all genes of Table 4; single-agent groups versus vehicle; result in words
Method: (§1) For mechanism analysis CT-26 tumors are excised on day 20, 1 h following the last dose of Compound A. A small piece of approximately 30 mg is cut and stored in RNALater for gene expression analysis. The remainder of the tumor is processed for the flow-cytometry analysis.
For RNA isolation from the tumor, approximately 30 mg tissue is cut. RNA is extracted by RNeasy Protocol (version January 2002) using RNeasy 96-well Column Plates (Qiagen, Valencia, Calif.; Cat #74182) and QiaVac 96 vacuum manifold at 15 psi vacuum. […] The total RNA concentration is estimated using Nanodrop ND-1000 spectrophotometer by absorbance at 260 nm (Thermo Scietific). […]
For Taqman procedure, 100 μL of cDNA is diluted with 200 μL RNase/DNase-free water in 96-Well Clear Optical Reaction Plate (Applied Biosystems, Cat #4306737) and transferred to 2 mL RNase/DNase-free tubes (Ambion, Cat #AM12475). […] Samples are dispensed with Tecan Automated Pipetting Workstation (Tecan US Inc., Durham, N.C.; Model: Freedom Evo-100 or Evo-150), and plates are read in ABI Prism 9700HT SDS plate reader with following protocol settings: 50° C. for 2 minutes, 95° C. for 10 minutes, and 40 cycles at 95° C. for 15 seconds and 60° C. for 1 minute. […] All calculations are done in Microsoft Excel spreadsheet template, and % inhibition is calculated from control values. […]

[2] = tested on: CT-26 tumors; test: Flow-cytometry of intra-tumoral immune cell populations in excised CT-26 tumors; type: in vivo, mice; conditions: tumors excised day 20, 1 h after last dose of Compound A
Method: as §1
Tumors are weighed and then homogenized in 5 ml 4° C. complete media (CM; RPMI-1640/10% fetal bovine serum (FBS)) through 100 μm strainers to produce single-cell suspensions. Cells are centrifuged for 5 minutes at 466×g, 4° C.; the pellets are resuspended in fresh CM (0.5-3 ml, depending on pellet volume), and cells are counted using a Vi-Cell XR (Beckman Coulter). An equal number of total cells per tumor (10×10^6) are transferred to 96-well V-bottom microplates (Fisher Scientific). Cells are centrifuged (700×g, 3 min., 4° C.) and resuspended in 100 μl 1 μg/ml Fc block in CM (anti-CD16/32 (clone 2.4G2); Tonbo Biosciences) for 30 minutes on ice. Cells are centrifuged (700×g, 3 minutes, 4° C.) and resuspended in 100 μl of one of several fluochrome-conjugated surface marker antibody cocktails [anti-CD3 (clone 145-2C11), -Ly-6G (clone 1A8), -CD11c (clone HL3), -CD45 (clone 30-F11) (BD Biosciences), anti-CD8 (clone 53-6.7) (Biolegend), -CD11b (clone M1/70), -CD3 (clone 145-2C11), -F4/80 (clone BM8), -CD4 (clone RM4-5), (eBioscience)] containing a fixable viability dye (eBioscience) and incubated for 30 minutes on ice covered from light. Cells are twice washed with 200 μl CM and centrifuged (700×g, 3 min., 4° C.). Following the second wash, cells are fixed, permeabilized, and intracellularly stained for Ki67 (clone SolA15) (eBioscience) using the Foxp3/Transcription Factor Staining Buffer Set (eBioscience), following the manufacturer's instructions with noted modifications. Briefly, cells are fixed in 100 μl/well for 30 min., followed by 100 μl/well permeabilization buffer with or without intracellular stain (depending on the staining panel used) for 30 min. Cells are twice washed with 200 μl 1× permeabilization buffer and centrifuged (700×g, 3 min., 4° C.), followed by resuspension in PBS with 2% FBS. 1×10^6 events, excluding debris, are captured for each sample using a 10-channel LSR II cytometer (BD Biosciences) and analyzed using FlowJo V.10.0.8 software. Data is represented as percent of tumor cells, with noted exceptions where represented as percent of parent population. Post-hoc t-test following ANOVA is used for statistical analysis between vehicle and treatment groups.

[3] = tested on: CT26 cells; test: CT26 colorectal tumor growth in BALB/C mice (in-vivo study); conditions: CT26 s.c. in BALB/C mice
Method: For in-vivo studies 1×10^6 CT26 cells (ATCC® CRL2639™) a colorectal cancer cell line, in 0.2 mL Hank's Balanced Salt Solution (HBSS) is implanted by subcutaneous injection in the hind leg of 6-8 weeks of age BALB/C female mice (Harlan Laboratories). Mice are fed ad libitum on normal chow. Treatment is initiated on day 6 of tumor implantation with oral administration (gavage) of Compound A in 1% Sodium carboxymethyl cellulose (Na-CMC) in 0.25% Tween® 80, or intraperitoneal injection of mouse anti PD-L1 antibody (10F.9G2, BioXcell Catalogue #: BE0101) in phosphate buffered saline (PBS) or intraperitoneal injection of mouse anti PD-1 (CD279) antibody (Clone: RMP1-14, BioXCell #: BP0146-R) in PBS or their respective vehicle in 0.2 mL volume. Compound A is administered at 8 mg/kg on a Monday, Wednesday and Friday schedule for 2 weeks and 10F.9G2 and RMP1-14 are administered at 250 μg/dose/animal on Monday and Thursday schedule for 2 weeks.
Tumor growth and body weight are monitored over time to evaluate efficacy and signs of toxicity. Bidimensional measurements of tumors are performed twice a week and tumor volumes are calculated based on the following formula: (Tumor Volume)=[(L)×(W2)×(Π/6)] where L is mid-axis length and W is mid-axis width. Tumor volume data are transformed to a log scale to equalize variance across time and treatment groups. The log volume data are analyzed with a two-way repeated measures analysis of variance by time and treatment using the MIXED™ procedures in SAS™ software (version 8.2). The correlation model for the repeated measures is spatial power. Test Groups are: • 1: 1% CMC/0.25% Tween® 80/0.05% Antifoam, Monday-Wednesday-Friday ×2, PO/PBS Monday-Thursday ×2, IP • 2: Compound A, 8 mg/kg, Monday-Wednesday-Friday ×2, PO • 3: Compound B (PD-L1), 250 μg/dose, Monday-Thursday ×2, IP • 4: Compound C (PD-1), 250 μg/dose, Monday-Thursday ×2, IP • 5: Compound A, 8 mg/kg, Monday-Wednesday-Friday ×2, PO/Compound B (PD-L1), 250 μg/dose, Monday-Thursday ×2, IP • 6: Compound A, 8 mg/kg, Monday-Wednesday-Friday ×2, PO/Compound C (PD-1), 250 μg/dose, Monday-Thursday ×2, IP
Tumor growth and body weight are monitored over time to evaluate efficacy and signs of toxicity. Bidimensional measurements of tumors are performed twice a week and tumor volumes are calculated based on the following formula: (Tumor Volume)=[(L)×(W2)×(Π/6)] where L is mid-axis length and W is mid-axis width. Tumor volume data are transformed to a log scale to equalize variance across time and treatment groups. The log volume data are analyzed with a two-way repeated measures analysis of variance by time and treatment using the MIXED™ procedures in SAS™ software (version 8.2). The correlation model for the repeated measures is spatial power. Treated groups are compared to the control group at each time point. The MIXED™ procedure is also used separately for each treatment group to calculate adjusted means and standard errors at each time point. Both analyses account for the autocorrelation within each animal and the loss of data that occurs when animals with large tumors are removed from the study early. […] Antitumor activity is expressed as a tumor volume percentage for treatment versus control (% T/C) and is calculated by comparing tumor volume in the treatment group with vehicle treatment group. Percentage T/C and statistical significance value (p value) for the treatment groups is measured essentially as described above and summarized in Table 2. […]

C[C@H](NC(=O)CCC(F)(F)F)C(=O)N[C@@H]1C(=O)N(CCO)c2ncccc2-c2ccccc21 [Compound A, 4,4,4-trifluoro-N-[(1S)-2-[[(7S)-5-(2-hydroxyethyl)-6-oxo-7H-pyrido[2,3-d][3]benzazepin-7-yl]amino]-1-methyl-2-oxo-ethyl]butanamide]
change in the expression of genes examined [1]: No significant change | CD4+/Ki67+ (% of CD4+) Mean % ± SEM [2]: 7.6 ± 0.5% | CD8+/Ki67+ (% of CD8+) Mean % ± SEM [2]: 23.1 ± 2.0% | CD11b + F4/80+ (% of Tumor) Mean % ± SEM [2]: 0.89 ± 0.15% | CD11b + Ly-6G + F4/80− (% of Tumor) Mean % ± SEM [2]: 1.12 ± 0.08% | CD11b+ (% of Tumor) Mean % ± SEM [2]: 2.9 ± 0.2% | CD11c+ (% of Tumor) Mean % ± SEM [2]: 0.42 ± 0.06% | Tumor volume: Geometric Mean ([3]; study day 8): 47.96 mm^3 | Tumor volume: Geometric Mean ([3]; study day 10): 88.80 mm^3 | Tumor volume: Geometric Mean ([3]; study day 14): 376.50 mm^3 | Tumor volume: Geometric Mean ([3]; study day 17): 751.13 mm^3 | Tumor volume: Geometric Mean ([3]; study day 20): 1227.40 mm^3
